Read-outs that look alike come from different tables or passages of the source.
Key:
Test in all cases: Test E pre-/postemergence plant response
Format in all cases: in vivo
kochia (Kochia scoparia) = conditions: Bassia scoparia, scale 0 to 100, read-out: Plant response rating, Kochia; for pest or weed control at 16 g/ha: 16 g ai/ha; for pest or weed control at 31 g/ha: 31 g ai/ha; for pest or weed control at 62 g/ha: 62 g ai/ha; for pest or weed control at 125 g/ha: 125 g ai/ha
Procedure, shortened: (§1)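 Visual scores on a 0–100 scale (100 = complete control) were assigned against untreated controls 7–21 days after treatment in a controlled environment. Compounds, formulated with solvent plus surfactant, were applied to pre-emergence silt-loam sowings or to 1- to 4-leaf plants (2–18 cm) in potting medium.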

[1] = tested on: bluegrass (annual bluegrass, Poa annua); conditions: scale 0 to 100, read-out: Plant response rating, Bluegrass; for pest or weed control at 16 g/ha: 16 g ai/ha; for pest or weed control at 31 g/ha: 31 g ai/ha; for pest or weed control at 62 g/ha: 62 g ai/ha; for pest or weed control at 125 g/ha: 125 g ai/ha
Procedure, shortened: as §1

[2] = tested on: wild mustard (Sinapis arvensis); conditions: Brassica, scale 0 to 100, read-out: Plant response rating, Mustard, Wild; for pest or weed control at 16 g/ha: 16 g ai/ha; for pest or weed control at 31 g/ha: 31 g ai/ha; for pest or weed control at 62 g/ha: 62 g ai/ha; for pest or weed control at 125 g/ha: 125 g ai/ha
Procedure, shortened: as §1

[3] = tested on: pigweed (Amaranthus retroflexus); conditions: scale 0 to 100, read-out: Plant response rating, Pigweed; for pest or weed control at 16 g/ha: 16 g ai/ha; for pest or weed control at 31 g/ha: 31 g ai/ha; for pest or weed control at 62 g/ha: 62 g ai/ha; for pest or weed control at 125 g/ha: 125 g ai/ha
Procedure, shortened: as §1

[4] = tested on: wild radish (Raphanus raphanistrum); conditions: scale 0 to 100, read-out: Plant response rating, Radish, Wild; for pest or weed control at 16 g/ha: 16 g ai/ha; for pest or weed control at 31 g/ha: 31 g ai/ha; for pest or weed control at 62 g/ha: 62 g ai/ha; for pest or weed control at 125 g/ha: 125 g ai/ha
Procedure, shortened: as §1

[5] = tested on: spring barley (Hordeum vulgare); conditions: post-emergence, Postemergence
Procedure, shortened: as §1

[6] = tested on: speedwell (bird's-eye speedwell, Veronica persica); conditions: scale 0 to 100, read-out: Plant response rating, Speedwell; for pest or weed control at 16 g/ha: 16 g ai/ha; for pest or weed control at 62 g/ha: 62 g ai/ha; for pest or weed control at 125 g/ha: 125 g ai/ha
Procedure, shortened: as §1

[7] = tested on: lambsquarters (Chenopodium album); conditions: scale 0 to 100, read-out: Plant response rating, Lambsquarters; for pest or weed control at 16 g/ha: 16 g ai/ha; for pest or weed control at 31 g/ha: 31 g ai/ha; for pest or weed control at 62 g/ha: 62 g ai/ha; for pest or weed control at 125 g/ha: 125 g ai/ha
Procedure, shortened: as §1

[8] = tested on: winter wheat (Triticum aestivum); conditions: post-emergence, Postemergence, scale 0 to 100, read-out: Plant response rating, Wheat, Winter
Procedure, shortened: as §1

[9] = tested on: Italian ryegrass (Lolium multiflorum); conditions: scale 0 to 100, read-out: Plant response rating, Ryegrass, Italian; for pest or weed control at 16 g/ha: 16 g ai/ha; for pest or weed control at 31 g/ha: 31 g ai/ha; for pest or weed control at 62 g/ha: 62 g ai/ha; for pest or weed control at 125 g/ha: 125 g ai/ha
Procedure, shortened: as §1

[10] = tested on: blackgrass (Alopecurus myosuroides); conditions: scale 0 to 100, read-out: Plant response rating, Blackgrass; for pest or weed control at 16 g/ha: 16 g ai/ha; for pest or weed control at 31 g/ha: 31 g ai/ha; for pest or weed control at 62 g/ha: 62 g ai/ha; for pest or weed control at 125 g/ha: 125 g ai/ha
Procedure, shortened: as §1

**Q.** Which results are given for `FC(F)(F)c1cc(-c2ccccc2Oc2ncc(Cl)cn2)no1` [Compound 200, 5-chloro-2-[2-[5-(trifluoromethyl)-3-isoxazolyl]phenoxy]pyrimidine]?
**A.** pest or weed control at 16 g/ha (kochia (Kochia scoparia); post-emergence, Postemergence): 70%; pest or weed control at 31 g/ha (kochia (Kochia scoparia); post-emergence, Postemergence): 85%; pest or weed control at 62 g/ha (kochia (Kochia scoparia); post-emergence, Postemergence): 85%; pest or weed control at 125 g/ha (kochia (Kochia scoparia); post-emergence, Postemergence): 90%; pest or weed control at 16 g/ha (kochia (Kochia scoparia); pre-emergence, Preemergence): 70%; pest or weed control at 31 g/ha (kochia (Kochia scoparia); pre-emergence, Preemergence): 100%; pest or weed control at 62 g/ha (kochia (Kochia scoparia); pre-emergence, Preemergence): 100%; pest or weed control at 125 g/ha (kochia (Kochia scoparia); pre-emergence, Preemergence): 100%; pest or weed control at 16 g/ha ([1]; post-emergence, Postemergence): 20%; pest or weed control at 31 g/ha ([1]; post-emergence, Postemergence): 35%; pest or weed control at 62 g/ha ([1]; post-emergence, Postemergence): 55%; pest or weed control at 125 g/ha ([1]; post-emergence, Postemergence): 70%; pest or weed control at 16 g/ha ([1]; pre-emergence, Preemergence): 20%; pest or weed control at 31 g/ha ([1]; pre-emergence, Preemergence): 70%; pest or weed control at 62 g/ha ([1]; pre-emergence, Preemergence): 95%; pest or weed control at 125 g/ha ([1]; pre-emergence, Preemergence): 100%; pest or weed control at 16 g/ha ([2]; post-emergence, Postemergence): 75%; pest or weed control at 31 g/ha ([2]; post-emergence, Postemergence): 95%; pest or weed control at 62 g/ha ([2]; post-emergence, Postemergence): 100%; pest or weed control at 125 g/ha ([2]; post-emergence, Postemergence): 100%; pest or weed control at 16 g/ha ([2]; pre-emergence, Preemergence): 85%; pest or weed control at 31 g/ha ([2]; pre-emergence, Preemergence): 95%; pest or weed control at 62 g/ha ([2]; pre-emergence, Preemergence): 85%; pest or weed control at 125 g/ha ([2]; pre-emergence, Preemergence): 100%; pest or weed control at 16 g/ha ([3]; post-emergence, Postemergence): 85%; pest or weed control at 31 g/ha ([3]; post-emergence, Postemergence): 90%; pest or weed control at 62 g/ha ([3]; post-emergence, Postemergence): 90%; pest or weed control at 125 g/ha ([3]; post-emergence, Postemergence): 90%; pest or weed control at 16 g/ha ([3]; pre-emergence, Preemergence): 100%; pest or weed control at 31 g/ha ([3]; pre-emergence, Preemergence): 100%; pest or weed control at 62 g/ha ([3]; pre-emergence, Preemergence): 100%; pest or weed control at 125 g/ha ([3]; pre-emergence, Preemergence): 100%; pest or weed control at 16 g/ha ([4]; post-emergence, Postemergence): 65%; pest or weed control at 31 g/ha ([4]; post-emergence, Postemergence): 80%; pest or weed control at 62 g/ha ([4]; post-emergence, Postemergence): 85%; pest or weed control at 125 g/ha ([4]; post-emergence, Postemergence): 95%; pest or weed control at 16 g/ha ([4]; pre-emergence, Preemergence): 80%; pest or weed control at 31 g/ha ([4]; pre-emergence, Preemergence): 70%; pest or weed control at 62 g/ha ([4]; pre-emergence, Preemergence): 95%; pest or weed control at 125 g/ha ([4]; pre-emergence, Preemergence): 95%; plant injury at 16 g/ha ([5]; 16 g ai/ha, scale 0 to 100, read-out: Plant response rating, Barley, Spring): 10%; plant injury at 31 g/ha ([5]; 31 g ai/ha, scale 0 to 100, read-out: Plant response rating, Barley, Spring): 15%; plant injury at 62 g/ha ([5]; 62 g ai/ha, scale 0 to 100, read-out: Plant response rating, Barley, Spring): 25%; plant injury at 125 g/ha ([5]; 125 g ai/ha, scale 0 to 100 (0 no effect, 100 complete control), read-out: Plant response rating, Barley, Spring): 35%; pest or weed control at 16 g/ha ([6]; post-emergence, Postemergence): 70%; pest or weed control at 31 g/ha ([6]; post-emergence, 31 g ai/ha, Postemergence): 100%; pest or weed control at 62 g/ha ([6]; post-emergence, Postemergence): 100%; pest or weed control at 125 g/ha ([6]; post-emergence, Postemergence): 100%; pest or weed control at 16 g/ha ([6]; pre-emergence, Preemergence): 100%; pest or weed control at 62 g/ha ([6]; pre-emergence, Preemergence): 100%; pest or weed control at 125 g/ha ([6]; pre-emergence, Preemergence): 100%; pest or weed control at 16 g/ha ([7]; post-emergence, Postemergence): 75%; pest or weed control at 31 g/ha ([7]; post-emergence, Postemergence): 85%; pest or weed control at 62 g/ha ([7]; post-emergence, Postemergence): 90%; pest or weed control at 125 g/ha ([7]; post-emergence, Postemergence): 95%; pest or weed control at 16 g/ha ([7]; pre-emergence, Preemergence): 10%; pest or weed control at 31 g/ha ([7]; pre-emergence, Preemergence): 85%; pest or weed control at 62 g/ha ([7]; pre-emergence, Preemergence): 100%; pest or weed control at 125 g/ha ([7]; pre-emergence, Preemergence): 100%; plant injury at 16 g/ha ([8]; 16 g ai/ha): 0%; plant injury at 31 g/ha ([8]; 31 g ai/ha): 5%; plant injury at 62 g/ha ([8]; 62 g ai/ha): 15%; plant injury at 125 g/ha ([8]; 125 g ai/ha): 25%; pest or weed control at 16 g/ha ([9]; post-emergence, Postemergence): 5%; pest or weed control at 31 g/ha ([9]; post-emergence, Postemergence): 10%; pest or weed control at 62 g/ha ([9]; post-emergence, Postemergence): 25%; pest or weed control at 125 g/ha ([9]; post-emergence, Postemergence): 40%; pest or weed control at 16 g/ha ([9]; pre-emergence, Preemergence): 0%; pest or weed control at 31 g/ha ([9]; pre-emergence, Preemergence): 25%; pest or weed control at 62 g/ha ([9]; pre-emergence, Preemergence): 30%; pest or weed control at 125 g/ha ([9]; pre-emergence, Preemergence): 85%; pest or weed control at 16 g/ha ([10]; post-emergence, Postemergence): 15%; pest or weed control at 31 g/ha ([10]; post-emergence, Postemergence): 35%; pest or weed control at 62 g/ha ([10]; post-emergence, Postemergence): 55%; pest or weed control at 125 g/ha ([10]; post-emergence, Postemergence): 75%; pest or weed control at 16 g/ha ([10]; pre-emergence, Preemergence): 25%; pest or weed control at 31 g/ha ([10]; pre-emergence, Preemergence): 75%; pest or weed control at 62 g/ha ([10]; pre-emergence, Preemergence): 90%; pest or weed control at 125 g/ha ([10]; pre-emergence, Preemergence): 100%

Source: patent US10131652B2, “Pyrimidinyloxy benzene derivatives as herbicides” (E. I. DU PONT DE NEMOURS AND COMPANY, priority 2014, dated 2018)
